For one assay, the system named is Candida glabrata. Put plainly: Microdilution assay (MIC). Format: cell-based. As to conditions: Nakaseomyces glabratus, hydrochlorides used, arithmetic average of two determinations, read-out: Minimal inhibitory concentration (MIC). The method, then: (§1) For comparison, the N-undecylperhydroisoquinoline (C) was also tested here. For solubility reasons, the hydrochlorides were used in this assay (Table 2).
Background: Broth dilution looks for growth in wells or tubes with falling amounts of substance.

A further assay relates to Saccharomyces cerevisiae. Put plainly: Microdilution assay (MIC). Format: cell-based. Particulars: hydrochlorides used, arithmetic average of two determinations, read-out: Minimal inhibitory concentration (MIC). The method, then:
as §1

The next assay has as its system Yarrowia lipolytica. In words: Microdilution assay (MIC). Format: cell-based. As to conditions: hydrochlorides used, arithmetic average of two determinations, read-out: Minimal inhibitory concentration (MIC). The method, then: as §1
For assay [1], the system named is human leukemia cell line (HL 60). In words: MTT test (cytotoxicity). Format: cell-based. As to conditions: HL 60 cell line, arithmetic average of three determinations. As for the experimental part:
The cytotoxicity of the compounds 3a–d, 5a–d, and 8b was determined in an MTT test against a human leukemia cell line (HL 60).
A general note: Tetrazolium dyes change colour on reduction, which living cells bring about.

The target in assay [2] is T1, Δ8,7-isomerase (Saccharomyces cerevisiae, UniProt P32352).
T1 construct: whole-cell assay for identification of the target enzyme in ergosterol biosynthesis; endogenous in cells; host or cells: Saccharomyces cerevisiae and Candida glabrata whole cells
T1 sequence (P32352 whole entry, stated change not applied): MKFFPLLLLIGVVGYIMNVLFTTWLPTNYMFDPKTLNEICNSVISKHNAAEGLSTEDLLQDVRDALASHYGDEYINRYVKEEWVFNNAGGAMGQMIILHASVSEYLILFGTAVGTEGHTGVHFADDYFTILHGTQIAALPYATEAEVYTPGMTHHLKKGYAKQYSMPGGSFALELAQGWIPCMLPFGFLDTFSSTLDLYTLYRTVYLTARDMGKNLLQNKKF
In words: Whole-cell assay for identification of the target enzyme in ergosterol biosynthesis (sterol pattern by GLC-MS). Format: cell-based. As to conditions: Candida glabrata and Saccharomyces cerevisiae incubated with test compound, lichesterol accumulation indicates Δ8,7-isomerase inhibition. As for the experimental part:
The compounds 5c and 7 were also subjected to our whole-cell assay for identification of the target enzyme in ergosterol biosynthesis. In this assay, the strains Candida glabrata and Saccharomyces cerevisiae were incubated with the test compounds, and after cell lysis, the changes in the sterol pattern were analyzed by GLC-MS. The accumulation of the Δ8(9)-sterol lichesterol (ergosta-5,8,22-trien-3β-ol) clearly indicates an inhibition of the enzyme Δ8,7-isomerase.

The subject of assay [3] is Δ8,7-isomerase. The arrangement: method as in PMID 24464607. Particulars: cited from earlier work.
In assay [4] the test system is Aspergillus niger (DSMZ-Nr. 1988). In words: Agar diffusion assay. Format: cell-based. As to conditions: A. niger, GI = growth inhibition, read-out: diameter of zones of total inhibition. As for the experimental part: (§2) The resulting compounds and known compounds, 1-undecylpiperidine (7) and 1-decylpiperazine (8a), as well as 1-methyl-4-undecylpiperazine (8b) (prepared in the same way), were tested in an agar diffusion assay against Gram-positive (Staphylococcus equorum (DSMZ-Nr. 20675), Streptococcus entericus (DSZM-Nr. 14446)) and Gram-negative bacteria (Escherichia coli (DSMZ-Nr. 426), Pseudomonas marginalis (DSMZ-Nr. 7527)), as well as the fungi Yarrowia lipolytica (DSMZ-Nr. 1345), Candida glabrata (DSMZ-Nr.11226), Aspergillus niger (DSMZ-Nr. 1988), and Hyphopichia burtonii (DSMZ-Nr. 70663) (Table 1).
On the technique in general: In agar diffusion tests the substance spreads into inoculated agar from a disc or well.

Assay [5] has as its system Candida glabrata (DSMZ-Nr.11226). Put plainly: Agar diffusion assay. Format: cell-based. Particulars: Nakaseomyces glabratus, C. glabrata, GI = growth inhibition, read-out: diameter of zones of total inhibition. The method, then: as §2
The subject of assay [6] is Escherichia coli (DSMZ-Nr. 426). In words: Agar diffusion assay. Format: cell-based. Particulars: E. coli, GI = growth inhibition, read-out: diameter of zones of total inhibition. The method, then: as §2
Assay [7] deals with Hyphopichia burtonii (DSMZ-Nr. 70663). In words: Agar diffusion assay. Format: cell-based. Particulars: H. burtonii, GI = growth inhibition, read-out: diameter of zones of total inhibition. As for the experimental part: as §2
Assay [8] has as its system Pseudomonas marginalis (DSMZ-Nr. 7527). In words: Agar diffusion assay. Format: cell-based. As to conditions: P. marginalis, GI = growth inhibition, read-out: diameter of zones of total inhibition. As for the experimental part: as §2
The subject of assay [9] is Staphylococcus equorum (DSMZ-Nr. 20675). Put plainly: Agar diffusion assay. Format: cell-based. Particulars: read-out: diameter of zones of total inhibition. The method, then: as §2
Assay [10] concerns Streptococcus entericus (DSZM-Nr. 14446). In words: Agar diffusion assay. As to conditions: S. entericus, GI = growth inhibition, read-out: diameter of zones of total inhibition. Format: cell-based. As for the experimental part: as §2
For assay [11], the system named is Yarrowia lipolytica (DSMZ-Nr. 1345). Put plainly: Agar diffusion assay. Format: cell-based. Particulars: Y. lipolytica, GI = growth inhibition, read-out: diameter of zones of total inhibition. The method, then: as §2
In a further assay the test system is Candida spp. The arrangement: method as in earlier work. As to conditions: printed in the Candida glabrata column; cited from earlier work.

Values after ≈ are worked out from the molar mass of the structure shown. Where a name gives a salt, the structure may show the parent alone.

`CCCCCCCCCN1CCC[C@@H]2CCCC[C@H]21` (racemic) [Compound 5a, (±)-trans-1-Nonyldecahydroquinoline hydrochloride]: the results for the MIC in the assay with Candida glabrata, in the assay with Saccharomyces cerevisiae and in the assay with Yarrowia lipolytica were 50 µg/mL, 2.5 µg/mL and 7.5 µg/mL, respectively. Inhibition in [1] was half-maximal at 22 µM (IC50).

Consider `CCCCCCCCCCN1CCC[C@@H]2CCCC[C@H]21` (racemic) [Compound 5b, (±)-trans-1-Decyldecahydroquinoline hydrochloride], for which the values for the MIC with Candida glabrata, in the assay with Saccharomyces cerevisiae and with Yarrowia lipolytica were 37.5 µg/mL, 1 µg/mL and 2.5 µg/mL, respectively. Also, the IC50 – broadly, the concentration that gives 50% inhibition – in assay [1] came out at 7 µM.

As for `CCCCCCCCCCCN1CCC[C@@H]2CCCC[C@H]21` (racemic) [Compound 5c, (±)-trans-1-Undecyldecahydroquinoline hydrochloride], the figures for the MIC in the assay with Candida glabrata, with Saccharomyces cerevisiae and with Yarrowia lipolytica were 25 µg/mL, 0.25 µg/mL and 5 µg/mL, respectively. In assay [1], this molecule returned an IC50 of 7 µM. In addition, the figures for the “change in sterol pattern / target enzyme in ergosterol biosynthesis” value at Δ8,7-isomerase [2] and on Δ8,7-isomerase [2] (listed as N-undecylperhydroquinoline) were “accumulation of lichesterol” and “inhibitor of Δ8,7-isomerase”, respectively.

As for `CCCCCCCCCCCCN1CCC[C@@H]2CCCC[C@H]21` (racemic) [Compound 5d, (±)-trans-1-Dodecyldecahydroquinoline hydrochloride], the MIC with Candida glabrata stood at 5 µg/mL; in the assay with Saccharomyces cerevisiae it was 2.5 µg/mL; with Yarrowia lipolytica it was 2.5 µg/mL. Half-maximal inhibition in [1] (IC50) was put at 6 µM.

For `CCCCCCCCCCCN1CC[C@H]2CCCC[C@@H]2C1` (relative stereo) [C, N-n-undecyl-trans-decahydroisoquinoline, reference compound], the figures for the MIC in the assay with Candida glabrata, with Saccharomyces cerevisiae and in the assay on Yarrowia lipolytica were 5 µg/mL (≈ 17 µM), 0.1 µg/mL (≈ 0.341 µM) and 1.75 µg/mL (≈ 5.96 µM), respectively. For the same molecule, the “antifungal mechanism (enzyme inhibited)” value in the assay on Δ8,7-isomerase [3] is “potent antifungal inhibiting the enzyme Δ8,7-isomerase”.

On to `CCCCCCCCCCCN1CCCCC1` [Compound 7, 1-undecylpiperidine, reference compound], for which the zone of inhibition at 50 µg/disc in assay [4] turned out to be 0 mm; in assay [5] it was 8 mm; in [6], 7 mm; in assay [7], 12 mm; in [8], 8 mm; in assay [9] it was 13 mm. Moreover, the zone of inhibition at 50 µg/disc was found to be 17 mm in assay [10] and 22 mm in assay [11]. The MIC in the assay with Candida glabrata worked out at 12.5 µg/mL (≈ 52.2 µM); in the assay with Saccharomyces cerevisiae, 1.75 µg/mL (≈ 7.31 µM); in the assay with Yarrowia lipolytica it was 7.5 µg/mL (≈ 31.3 µM). For the same molecule, the “change in sterol pattern / target enzyme in ergosterol biosynthesis” value at Δ8,7-isomerase [2] is “accumulation of lichesterol”.

For the molecule `CCCCCCCCCCCN1CCN(C)CC1` [Compound 8b, 1-methyl-4-undecylpiperazine, reference compound], the zone of inhibition at 50 µg/disc was found to be 12 mm in [4]; 11 mm in assay [5]; 10 mm in assay [6]; 14 mm in [7]; 15 mm in [8]; 18 mm in [9]. Also, the zone of inhibition at 50 µg/disc in [10] was found to be 15 mm; in assay [11], 25 mm. Further, the MIC in the assay with Candida glabrata worked out at 25 µg/mL (≈ 98.2 µM); in the assay on Saccharomyces cerevisiae, 50 µg/mL (≈ 196 µM); in the assay with Yarrowia lipolytica, 10 µg/mL (≈ 39.3 µM). This molecule came in with an IC50 in assay [1] of 46 µM.

Consider `Clc1ccccc1C(c1ccccc1)(c1ccccc1)n1ccnc1` [clotrimazole, reference compound], for which the zone of inhibition at 50 µg/disc in [4] came to 15 mm; in assay [5], 13 mm; in assay [7], 25 mm; in assay [11], 15 mm. For the same molecule, in the assay on Candida spp., the “MIC90 Candida spp.” value is 1 (MIC90 Candida spp.) [17] µg/mL.

`OC(Cn1cncn1)(Cn1cncn1)c1ccc(F)cc1F` [fluconazole]: the “MIC90 Candida spp.” value in the assay on Candida spp. was 32 (MIC90 Candida spp.) [17] µg/mL.

Consider nystatine B, for which, in the assay with Candida spp., the “MIC90 Candida spp.” value was 4 (MIC90 Candida spp.) [17] µg/mL.

(Values after article PMC4727778, “Synthesis and Antifungal Evaluation of Novel N-Alkyl Tetra- and Perhydroquinoline Derivatives” (Scientia Pharmaceutica, 2014).)
